Reference: patent US7947706B2, “Substituted pyrrolopyridines, compositions containing them, manufacturing process therefor and use thereof” (Sanofi-Aventis Deutschland GmbH, priority 2005, dated 2011)

Row | Compound | melting point
1 | NC(=O)c1[nH]c2cnccc2c1-c1ccc(NC(=O)Nc2cccc(Cl)c2)cc1.O=C(O)C(F)(F)F | 221 °C
2 | NC(=O)c1[nH]c2cnccc2c1-c1ccc(NC(=O)Nc2ccc(F)c(Cl)c2)cc1.O=C(O)C(F)(F)F | 214 °C
3 | NC(=O)c1[nH]c2c(ccc[n+]2[O-])c1-c1ccc(NC(=O)Nc2cc(C(F)(F)F)ccc2F)cc1 [Example 8, 3-{4-[3-(2-Fluoro-5-trifluoromethylphenyl)ureido]phenyl}-7-oxy-1H-pyrrolo[2,3-b]pyridine-2-carboxamide] | 220 °C
4 | NC(=O)c1[nH]c2ncccc2c1-c1ccc(NC(=O)Nc2ccccc2F)cc1 [Example 9, 3-{4-[3-(2-Fluorophenyl)ureido]phenyl}-1H-pyrrolo[2,3-b]-pyridine-2-carboxamide] | 268.7 °C
5 | COc1ccccc1NC(=O)Nc1ccc(-c2c(C(N)=O)[nH]c3ncccc23)cc1 [Example 10, 3-{4-[3-(2-Methoxyphenyl)ureido]phenyl}-1H-pyrrolo[2,3-b]-pyridine-2-carboxamide] | 227.1 °C
6 | NC(=O)c1[nH]c2ncccc2c1-c1ccc(NC(=O)Nc2ccc(C(F)(F)F)cc2)cc1 [Example 11, 3-{4-[3-(4-Trifluoromethylphenyl)ureido]phenyl}-1H-pyrrolo-[2,3-b]pyridine-2-carboxamide] | 296.2 °C
7 | NC(=O)c1[nH]c2ncccc2c1-c1ccc(NC(=O)Nc2cc(C(F)(F)F)ccc2Cl)cc1 [Example 12, 3-{4-[3-(2-Chloro-5-trifluoromethylphenyl)ureido]phenyl}-1H-pyrrolo[2,3-b]pyridine-2-carboxamide] | 188.3 °C
8 | NC(=O)c1[nH]c2ncccc2c1-c1ccc(NC(=O)Nc2cccc(C(F)(F)F)c2F)cc1 [Example 13, 3-{4-[3-(2-Fluoro-3-trifluoromethylphenyl)ureido]phenyl}-1H-pyrrolo[2,3-b]pyridine-2-carboxamide] | 265.4 °C
9 | NC(=O)c1[nH]c2ncccc2c1-c1ccc(NC(=O)Nc2ccc(F)c(C(F)(F)F)c2)cc1 [Example 14, 3-{4-[3-(4-Fluoro-3-trifluoromethylphenyl)ureido]phenyl}-1H-pyrrolo[2,3-b]pyridine-2-carboxamide] | 234.7 °C
10 | NC(=O)c1[nH]c2ncccc2c1-c1ccc(NC(=O)Nc2cc(F)cc(C(F)(F)F)c2)cc1 [Example 15, 3-{4-[3-(3-Fluoro-5-trifluoromethylphenyl)ureido]phenyl}-1H-pyrrolo[2,3-b]pyridine-2-carboxamide] | 257.5 °C
11 | NC(=O)c1[nH]c2ncccc2c1-c1ccc(NC(=O)Nc2ccc(OC(F)(F)F)cc2)cc1 [Example 16, 3-{4-[3-(4-Trifluoromethoxyphenyl)ureido]phenyl}-1H-pyrrolo[2,3-b]pyridine-2-carboxamide] | 258.9 °C
12 | COc1ccc(NC(=O)Nc2ccc(-c3c(C(N)=O)[nH]c4ncccc34)cc2)cc1OC [Example 17, 3-{4-[3-(3,4-Dimethoxyphenyl)ureido]phenyl}-1H-pyrrolo-[2,3-b]pyridine-2-carboxamide] | 223.7 °C
13 | Cc1ccc(C)c(NC(=O)Nc2ccc(-c3c(C(N)=O)[nH]c4ncccc34)cc2)c1 [Example 18, 3-{4-[3-(2,5-Dimethylphenyl)ureido]phenyl}-1H-pyrrolo[2,3-b]pyridine-2-carboxamide] | 308.8 °C
14 | COc1cccc(NC(=O)Nc2ccc(-c3c(C(N)=O)[nH]c4ncccc34)cc2)c1 [Example 19, 3-{4-[3-(3-Methoxyphenyl)ureido]phenyl}-1H-pyrrolo[2,3-b]-pyridine-2-carboxamide] | 306.2 °C
15 | NC(=O)c1[nH]c2ncccc2c1-c1ccc(NC(=O)Nc2cccc(C(F)(F)F)c2)cc1 [Example 20, 3-{4-[3-(3-Trifluoromethylphenyl)ureido]phenyl}-1H-pyrrolo-[2,3-b]pyridine-2-carboxamide] | 263.6 °C
16 | Cc1ccc(NC(=O)Nc2ccc(-c3c(C(N)=O)[nH]c4ncccc34)cc2)cc1C [Example 21, 3-{4-[3-(3,4-Dimethylphenyl)ureido]phenyl}-1H-pyrrolo[2,3-b]pyridine-2-carboxamide] | 274.7 °C
17 | COc1ccc(C)cc1NC(=O)Nc1ccc(-c2c(C(N)=O)[nH]c3ncccc23)cc1 [Example 22, 3-{4-[3-(2-Methoxy-5-methylphenyl)ureido]phenyl}-1H-pyrrolo[2,3-b]pyridine-2-carboxamide] | 327.7 °C
18 | Cc1cccc(NC(=O)Nc2ccc(-c3c(C(N)=O)[nH]c4ncccc34)cc2)c1 [Example 23, 3-[4-(3-m-Tolylureido)phenyl]-1H-pyrrolo[2,3-b]pyridine-2-carboxamide] | 266 °C
19 | NC(=O)c1[nH]c2ncccc2c1-c1ccc(NC(=O)Nc2ccc(F)cc2)cc1 [Example 24, 3-{4-[3-(4-Fluorophenyl)ureido]phenyl}-1H-pyrrolo[2,3-b]-pyridine-2-carboxamide] | 299.9 °C
20 | Cc1ccc(NC(=O)Nc2ccc(-c3c(C(N)=O)[nH]c4ncccc34)cc2)cc1 [Example 25, 3-[4-(3-p-Tolylureido)phenyl]-1H-pyrrolo[2,3-b]pyridine-2-carboxamide] | 293 °C
21 | Cc1ccc(NC(=O)Nc2ccc(-c3c(C(N)=O)[nH]c4ncccc34)cc2)cc1C(F)(F)F [Example 26, 3-{4-[3-(4-Methyl-3-trifluoromethylphenyl)ureido]phenyl}-1H-pyrrolo[2,3-b]pyridine-2-carboxamide] | 285 °C
22 | NC(=O)c1[nH]c2ncccc2c1-c1ccc(NC(=O)Nc2ccc(OC(F)F)cc2)cc1 [Example 27, 3-{4-[3-(4-Difluoromethoxyphenyl)ureido]phenyl}-1H-pyrrolo[2,3-b]pyridine-2-carboxamide] | 283.5 °C
23 | COc1cc(NC(=O)Nc2ccc(-c3c(C(N)=O)[nH]c4ncccc34)cc2)cc(OC)c1 [Example 28, 3-{4-[3-(3,5-Dimethoxyphenyl)ureido]phenyl}-1H-pyrrolo-[2,3-b]pyridine-2-carboxamide] | 266.5 °C
24 | NC(=O)c1[nH]c2ncccc2c1-c1ccc(NC(=O)Nc2ccc(Cl)c(C(F)(F)F)c2)cc1 [Example 29, 3-{4-[3-(4-Chloro-3-trifluoromethylphenyl)ureido]phenyl}-1H-pyrrolo[2,3-b]pyridine-2-carboxamide] | 311.1 °C
25 | COc1ccc(C(F)(F)F)cc1NC(=O)Nc1ccc(-c2c(C(N)=O)[nH]c3ncccc23)cc1 [Example 32, 3-{4-[3-(2-Methoxy-5-trifluoromethylphenyl)ureido]phenyl}-1H-pyrrolo[2,3-b]pyridine-2-carboxamide] | 221 °C
26 | COc1ccccc1NC(=O)Nc1ccc(-c2c(C(N)=O)[nH]c3cnccc23)cc1 [Example 34, 3-{4-[3-(2-Methoxyphenyl)ureido]phenyl}-1H-pyrrolo[2,3-c]pyridine-2-carboxamide] | 216 °C
27 | NC(=O)c1[nH]c2cnccc2c1-c1ccc(NC(=O)Nc2ccccc2C(F)(F)F)cc1 [Example 35, 3-{4-[3-(2-Trifluoromethylphenyl)ureido]phenyl}-1H-pyrrolo[2,3-c]pyridine-2-carboxamide] | 228 °C
28 | NC(=O)c1[nH]c2cnccc2c1-c1ccc(NC(=O)Nc2cccc(C(F)(F)F)c2)cc1 [Example 36, 3-{4-[3-(3-Trifluoromethylphenyl)ureido]phenyl}-1H-pyrrolo-[2,3-c]pyridine-2-carboxamide] | 256 °C
